This note sets out measurements from patent publication US9926295B2, “Potent and selective inhibitors of hepatitis C virus” (Cocrystal Pharma, Inc., priority 2014, dated 2018).

The term IC50 denotes the concentration that inhibits the measured activity by half. Usually EC50 stands for the midpoint of the concentration-response curve. A low value points to higher potency in that assay. By EC90 is commonly meant the concentration at which the effect reaches the 90% level. A higher EC90 goes with weaker potency.

Holding throughout (format): cell-based
Data set [1] in a line: Cellular toxicity assay in Vero cells. The following applies: African green monkey, read-out: Cytotoxicity (IC50 μM) Vero. As to the method:
(§1) The toxicity of the compounds was assessed in Vero, human PBM, CEM (human lymphoblastoid), MT-2, and HepG2 cells, as described previously (see Schinazi R. F., Sommadossi J.-P., Saalmann V., Cannon D. L., Xie M.-Y., Hart G. C., Smith G. A. & Hahn E. F. Antimicrob. Agents Chemother. 1990, 34, 1061-67). Cycloheximide was included as positive cytotoxic control, and untreated cells exposed to solvent were included as negative controls. The cytotoxicity IC50 was obtained from the concentration-response curve using the median effective method described previously (see Chou T.-C. & Talalay P. Adv. Enzyme Regul. 1984, 22, 27-55; Belen'kii M. S. & Schinazi R. F. Antiviral Res. 1994, 25, 1-11).

The nature of data set [2]: Cellular toxicity assay in CEM cells. The following applies: human, CEM (human lymphoblastoid) cells, read-out: Cytotoxicity (IC50 μM) CEM. As to the method: as §1
Data set [3] can be described thus: Cellular toxicity assay in human PBM cells. The following applies: read-out: Cytotoxicity (IC50 μM) PBM. As to the method:
as §1

Data set [4] relates to HCV Replicon RNA (HCV 1b) in Huh 7 Clone B cells. Briefly: HCV Replicon Assay. The following applies: Hepatitis C virus, 120 h, five days incubation. As to the method:
Huh 7 Clone B cells containing HCV Replicon RNA would be seeded in a 96-well plate at 5000 cells/well, and the compounds tested at 10 μM in triplicate immediately after seeding. Following five days incubation (37° C., 5% CO2), total cellular RNA was isolated by using versaGene RNA purification kit from Gentra. Replicon RNA and an internal control (TaqMan rRNA control reagents, Applied Biosystems) were amplified in a single step multiplex Real Time RT-PCR Assay. The antiviral effectiveness of the compounds was calculated by subtracting the threshold RT-PCR cycle of the test compound from the threshold RT-PCR cycle of the no-drug control (ΔCt HCV). A ΔCt of 3.3 equals a 1-log reduction (equal to 90% less starting material) in Replicon RNA levels. The cytotoxicity of the compounds was also calculated by using the ΔCt rRNA values. 2′-C-Me-C was used as the positive control. To determine EC90 and IC50 values^2, ΔCt: values were first converted into fraction of starting material^3 and then were used to calculate the % inhibition.
• 1. Stuyver L et al., Ribonucleoside analogue that blocks replication or bovine viral diarrhea and hepatitis C viruses in culture. Antimicrob. Agents Chemother. 2003, 47, 244-254. • 2. Reed I J & Muench H, A simple method or estimating fifty percent endpoints. Am. J. Hyg. 27: 497, 1938. • 3. Applied Biosystems Handbook Median Effective concentrations (EC50) ranges against HCV 1b are as follow: A=[…] B=100-999 nM C=1-99 nM D=<1 nM
A general note: In antiviral work, replicon cells carry a viral genome segment that copies itself.

`COC(=O)N[C@H](C(=O)N1CCCC1c1nc(Cl)c(-c2ccc(-c3ccc(-c4cnc([C@@H]5C[C@H](SC)CN5C(=O)[C@@H](NC(=O)OC)C(C)C)[nH]4)cc3)cc2)[nH]1)C(C)C` (stereo partly drawn) [Compound 42]: the IC50 in data set [1] came to 34.5 µM; in data set [2], 3.1 µM; in data set [3] it was 60 µM. Further, the EC50 in data set [4] (pM) was determined as 13.9 pM. Further, it took 26.3 pM to reach the 90% level in data set [4] (pM) (EC90).

Consider `COC(=O)N[C@H](C(=O)N1CCCC1c1nc(Cl)c(-c2ccc(-c3ccc(-c4cnc([C@@H]5C[C@H]([S+](C)[O-])CN5C(=O)[C@@H](NC(=O)OC)c5ccccc5)[nH]4)cc3)cc2)[nH]1)c1ccccc1` (stereo partly drawn) [Compound 44], for which the figures for the IC50 in data set [1], in data set [2] and in data set [3] were greater than 100 µM, 3.6 µM and 89.7 µM, respectively. The molecule further displayed an EC50 in data set [4] (values in nM) of 200 pM. Further, in data set [4] (values in nM), the concentration for an effect of 90% (EC90) came to 1100 pM.

`COC(=O)N[C@H](C(=O)N1CCCC1c1ncc(-c2ccc(-c3ccc(-c4[nH]c([C@@H]5C[C@H](SC)CN5C(=O)[C@@H](NC(=O)OC)C(C)C)nc4Cl)cc3)cc2)[nH]1)C(C)C` (stereo partly drawn) [Compound 45]: the IC50 in data set [1] is 14.4 µM; in data set [2], 5.2 µM; in data set [3], 27.2 µM. The molecule also had an EC50 in data set [4] (pM) of 16.3 pM. Moreover, the EC90 in data set [4] (pM) stood at 31.6 pM.

Regarding `COC(=O)N[C@H](C(=O)N1CCCC1c1ncc(-c2ccc(-c3ccc(-c4[nH]c([C@@H]5C[C@H]([S+](C)[O-])CN5C(=O)[C@@H](NC(=O)OC)C(C)C)nc4Cl)cc3)cc2)[nH]1)C(C)C` (stereo partly drawn) [Compound 46], the IC50 in data set [1] was 45.8 µM; in data set [2], 3.7 µM; in data set [3], 13.6 µM. The molecule also came in with an EC50 in data set [4] (values in nM) of 60 pM. In data set [4] (values in nM), this molecule returned a 90% effect concentration (EC90) of 300 pM.

With `COC(=O)N[C@H](C(=O)N1CCCC1c1ncc(-c2ccc(-c3ccc(-c4[nH]c([C@@H]5C[C@H](SC)CN5C(=O)[C@@H](NC(=O)OC)c5ccccc5)nc4Cl)cc3)cc2)[nH]1)c1ccccc1` (stereo partly drawn) [Compound 47], the IC50 in data set [1], in data set [2] and in data set [3] was greater than 100 µM each time. For the same molecule, the EC50 in data set [4] (pM) came to 4 pM. For the same molecule, the EC90 in data set [4] (pM) came to 23.1 pM.

With `COC(=O)N[C@H](C(=O)N1CCCC1c1ncc(-c2ccc(-c3ccc(-c4[nH]c([C@@H]5C[C@H]([S+](C)[O-])CN5C(=O)[C@@H](NC(=O)OC)c5ccccc5)nc4Cl)cc3)cc2)[nH]1)c1ccccc1` (stereo partly drawn) [Compound 48], the IC50 is greater than 100 µM in data set [1], 1.8 µM in data set [2] and 67.6 µM in data set [3]. The EC50 in data set [4] (values in nM) is 70 pM. For the same molecule, the EC90 in data set [4] (values in nM) is 500 pM.

As for `COC(=O)N[C@H](C(=O)N1CCCC1c1nc(Cl)c(-c2ccc(-c3ccc(-c4[nH]c([C@@H]5C[C@H](SC)CN5C(=O)[C@@H](NC(=O)OC)C(C)C)nc4Cl)cc3)cc2)[nH]1)C(C)C` (stereo partly drawn) [Compound 49], the results for the IC50 in data set [1], in data set [2] and in data set [3] were greater than 100 µM, 2.5 µM and 24.3 µM, respectively. The molecule further yielded an EC50 in data set [4] (pM) of 3.4 pM. This molecule had an EC90 in data set [4] (pM) of 69.9 pM.

With `COC(=O)N[C@H](C(=O)N1CCCC1c1nc(Cl)c(-c2ccc(-c3ccc(-c4[nH]c([C@@H]5C[C@H](SC)CN5C(=O)[C@@H](NC(=O)OC)c5ccccc5)nc4Cl)cc3)cc2)[nH]1)c1ccccc1` (stereo partly drawn) [Compound 51], the IC50 in data set [1], in data set [2] and in data set [3] was greater than 100 µM in each case. In data set [4] (pM), this molecule displayed an EC50 of 7.7 pM. In data set [4] (pM), this molecule had an EC90 of 19.1 pM.

For the molecule `COC(=O)N[C@H](C(=O)N1CCCC1c1nc(Cl)c(-c2ccc(-c3ccc(-c4[nH]c([C@@H]5C[C@H]([S+](C)[O-])CN5C(=O)[C@@H](NC(=O)OC)c5ccccc5)nc4Cl)cc3)cc2)[nH]1)c1ccccc1` (stereo partly drawn) [Compound 52], the IC50 was greater than 100 µM in data set [1], 7.1 µM in data set [2] and 83.9 µM in data set [3]. Also, the EC50 in data set [4] (values in nM) came out at 60 pM. Also, in data set [4] (values in nM), the EC90 was found to be 200 pM.
